# Where a SMILES comes first, the peptide text is derived from it. Bridges are numbered along the chain shown (N, C = ends).
# What was measured:
# [1] = Interspecies allometric scaling to predict human PK and human equivalent dose
# Method: Interspecies allometric scaling: Single-dose PK data from mice, rats, cynomolgus monkeys, and a vervet was used to predict human PK parameters using simple allometry. The relationship between CL or Vss obtained from the NCA, and the body weight was described using the following equation: Y=a·BW^b, where Y is the PK parameter (e.g., CL or Vss), BW is the bodyweight of the species, a is an allometric coefficient, and b is an allometric exponent. Linear regression was performed on log-transformed data. The predicted human equivalent dose was calculated based on the allometrically scaled clearance using the following equation: Dose=CL*AUC0-∞. The corresponding average AUCτ and AUC0-∞ at NOAEL and LOAEL, respectively, were used to convert the doses at NOAEL and LOAEL in preclinical animals to HED.
# in vivo [2] = settings: both, cynomolgus monkey, iv
# [3] = Single-dose i.v. bolus PK study in mice; format: in vivo, CD-1 mice
# Method: Mouse studies: All procedures and protocols involving the use of animals were reviewed and approved by the University of Southern California (USC) IACUC (protocol #20538). Briefly, male (31.7-37.7 g) and female (25.2-35.6 g) CD-1 mice (Charles River Laboratories) were administered a single 5 mg/kg i.v. bolus injection of Peptide 1 (SEQ ID NO. 1) into the lateral tail vein. A total of 24 mice were separated into six groups (n=2/sex/group), with each group assigned to a single, pre-determined time point. Blood samples were collected at 0.25, 1, 2, 4, 8, and 24 h post-dose via terminal cardiac puncture. The collected samples were centrifuged to separate the plasma and stored at −80° C. until analysis.
# Bioanalytical analysis: Clarified plasma samples from mice were directly diluted into 5% formic acid/5% acetonitrile. Quantitative analysis of Peptide 1 (SEQ ID NO. 1) was performed by LC-MS/MS with reverse-phase liquid chromatography (XBridge™ BEH phenyl 3.5 μm 3×100 mm column, Waters #186003328) on an Acquity™ H-Class UPLC (Waters) coupled to a Xevo™ TQ-S tandem electrospray mass spectrometry running MassLynx™ V4.1 (Waters). Quantitative mass spectroscopy was performed by multiple-reaction monitoring transition 417.32>517.21, with the area under the curve determined by TargetLynx™ (Waters). A synthetic theta defensin-like peptide was used as an internal standard (IS). The lower limit of quantification (LLOQ) of the assay was 1 ng/mL. Intra- and inter-assay precision (percent coefficient of variation [CV]) was ≤3%, and intra and interassay accuracy (% relative error) was ≤5%. Plasma Peptide 1 (SEQ ID NO. 1) concentration analyses for rats and cynomolgus monkey studies were performed at MicroConstants (San Diego, CA) by HPLC using a Mac-Mod™ Analytical ACE C4 column. The mobile phase was nebulized using heated nitrogen in Z-Spray source/interface set to electrospray positive ionization mode, and the compound was detected using MS/MS (LLOQ=10.0 ng/mL). Details of the method are summarized in the MicroConstants method No. MN20038. Clarified plasma samples from a serially sampled vervet were quantified by ultra-performance liquid chromatography Waters Acquity H-Class UPLC. […] Peptide 1 (SEQ ID NO. 1) peak and mass confirmation was performed on post PDA eluent using a Micromass Quattro Ultima™ mass spectrometer with MassLynx™ 4.1 (Waters). The lower limit of quantitation (LLOQ) ranged from 10-30 ng/mL (determined by sample background) to an upper limit of 50 ug/mL. RTD-2 (10 ug/mL) was used as an internal standard. Intra- and interassay precision (% coefficient of variation [CV]) was ≤3%, and intra and interassay accuracy (% relative error) was ≤5%.
# Pharmacokinetic analysis: Non-compartmental analysis (NCA) was performed using Phoenix WinNonlin™ (version 8.3.1, Certara USA, Inc.; Princeton NJ) to determine the PK parameters in mice, rats, cynomolgus monkeys, and the vervet. Nominal sampling times were used in the analysis, and data below the lower limit of quantification of the assay were excluded from the analysis. The maximum plasma concentration (Cmax) was determined from visual inspection of the data. In addition, the following parameters were calculated: terminal elimination rate constant (λz), area under the curve extrapolated to infinity (AUC0-∞), area under the curve to dosing interval (AUCτ), mean residence time (MRT), clearance (CL), and volume of distribution at steady state (Vss). AUC was calculated using the linear up, log down method, and the λz was calculated using up to the last four data points of the log-linear terminal phase of the concentration-time profile. Due to sparsely sampled data in mice and rats, the sparse sampling calculation methodology in Phoenix WinNonlin™ was used, which generated a single estimate without standard error for all parameters, except for Cmax. For rats and cynomolgus monkeys, all parameters were calculated using sampling times relative to the beginning of the i.v. infusion.
# in vivo [4] = settings: both, Sprague-Dawley, rat, iv
# [5] = both sexes, CD-1, mouse, plasma, iv, single 5 mg/kg i.v. bolus
smiles,measurement,setting,value
"CC[C@H](C)[C@@H]1NC(=O)[C@@H]2CSSC[C@H](NC(=O)[C@H](CCCNC(=N)N)NC(=O)[C@@H]3CSSC[C@H](NC1=O)C(=O)N[C@@H]([C@@H](C)O)C(=O)N[C@@H](CCCNC(=N)N)C(=O)NCC(=O)N[C@@H](Cc1ccccc1)C(=O)N3)C(=O)N[C@@H](CC(C)C)C(=O)N[C@H]1CSSC[C@H](NC(=O)[C@H](C(C)C)NC(=O)CNC(=O)[C@H](CCCNC(=N)N)NC(=O)[C@H](CCCNC(=N)N)NC1=O)C(=O)N[C@@H](CCCNC(=N)N)C(=O)N2 [Peptide 1] (cyclo(GFCRCLCRRGVCRCICTR); disulfide 3-16, 5-14, 7-12)",HED equivalent to NOAEL in cynomolgus monkeys,[1]; 70 kg individual,15.9 mg/kg
same,HED equivalent to NOAEL in rats,[1]; 70 kg individual,3.1 mg/kg
same,predicted human Vss,"[1]; adult 70 kg, simple allometry",28.0 L
same,mortality,"cynomolgus monkeys, 10-day repeat dose, any dose level",no mortality or unscheduled euthanasia occurred
same,"urinalysis, ophthalmologic assessments, electrocardiogram","cynomolgus monkeys, any dose level, data not shown",no treatment-related changes
same,food consumption,"cynomolgus, females at 10 mg/kg/day and both sexes at 15 mg/kg/day, non-adverse",Treatment-related decrease in food consumption
same,"microscopic findings, lung","cynomolgus, males ≥10 mg/kg/day and females ≥5 mg/kg/day, Day 11, resolved by end of recovery",minimal to mild intravascular thrombosis (thromboembolism)
same,tolerability,"male and female cynomolgus monkeys, doses up to 15 mg/kg",well tolerated
same,MTD at 7 days,in vivo [2],15 mg/kg
same,NOAEL at 7 days,in vivo [2]; 15 mg/kg,15 mg/kg/day
same,AUC,[3]; [5],12300 ng·h/mL
same,AUC(0-inf),[3]; [5],12500 ng·h/mL
same,MRT,[3]; [5],2.62 h
same,clearance,[3]; [5],6.67 mL/min/kg
same,Cmax,"[3]; both sexes, CD-1, mouse, plasma, iv, single 5 mg/kg i.v. bolus, estimate (SE)",8920 ng/mL
same,Vd,"[3]; both sexes, CD-1, mouse, plasma, iv, single 5 mg/kg i.v. bolus, read-out: Vss",1.05 L/kg
same,λz,[3]; single 5 mg/kg i.v. bolus,0.114 h⁻¹
same,elimination phase half-life,[3]; single i.v. bolus,6.05 h
same,AUC,in vivo [4]; 5 mg/kg,15000 ng·h/mL
same,AUC(0-inf),in vivo [4]; 5 mg/kg,15900 ng·h/mL
same,Cmax,in vivo [4]; 5 mg/kg,7470 ng/mL
same,MRT,in vivo [4]; 5 mg/kg,4.37 h
same,Vd,in vivo [4]; 5 mg/kg,1.46 L/kg
same,clearance,in vivo [4]; 5 mg/kg,5.57 mL/min/kg
same,AUC,in vivo [4]; 5 mg/kg/day,12500 ng·h/mL
same,AUC(0-inf),in vivo [4]; 5 mg/kg/day,12700 ng·h/mL
same,Cmax,in vivo [4]; 5 mg/kg/day,10100 ng/mL
same,MRT,in vivo [4]; 5 mg/kg/day,2.92 h
same,Vd,in vivo [4]; 5 mg/kg/day,1.17 L/kg
same,clearance,in vivo [4]; 5 mg/kg/day,6.68 mL/min/kg
same,AUC,in vivo [4]; 10 mg/kg,41700 ng·h/mL
same,AUC(0-inf),in vivo [4]; 10 mg/kg,42100 ng·h/mL
same,Cmax,in vivo [4]; 10 mg/kg,27500 ng/mL
same,MRT,in vivo [4]; 10 mg/kg,2.88 h
same,Vd,in vivo [4]; 10 mg/kg,0.691 L/kg
same,clearance,in vivo [4]; 10 mg/kg,4 mL/min/kg
same,AUC,in vivo [4]; 10 mg/kg/day,34100 ng·h/mL
same,AUC(0-inf),in vivo [4]; 10 mg/kg/day,34700 ng·h/mL
same,Cmax,in vivo [4]; 10 mg/kg/day,21800 ng/mL
same,MRT,in vivo [4]; 10 mg/kg/day,3.45 h
same,Vd,in vivo [4]; 10 mg/kg/day,1.01 L/kg
same,clearance,in vivo [4]; 10 mg/kg/day,4.88 mL/min/kg
same,AUC,in vivo [4]; 20 mg/kg,127000 ng·h/mL
same,AUC(0-inf),in vivo [4]; 20 mg/kg,127000 ng·h/mL
same,Cmax,in vivo [4]; 20 mg/kg,35400 ng/mL
same,MRT,in vivo [4]; 20 mg/kg,4.81 h
same,Vd,in vivo [4]; 20 mg/kg,0.758 L/kg
same,clearance,in vivo [4]; 20 mg/kg,2.62 mL/min/kg
